ChEMBL document CHEMBL1221382, “N,O-diacyl-4-benzoyl-N-phenylhydroxylamines as photoinduced DNA cleaving agents” (Bioorg Med Chem Lett, 2010)

Experiments:
Type in all cases: nucleic-acid assay
Nucleic Acid [1] = assay: Induction of DNA cleavage activity in Escherichia coli pBR322 assessed as relaxed circular form after 10 mins by gel electrophoresis in presence of UV light; set-up: concentration or dose not given beside the values
Nucleic Acid [2] = assay: Induction of DNA cleavage activity in Escherichia coli pBR322 assessed as supercoiled circular form after 10 mins by gel electrophoresis in presence of UV light; set-up: concentration or dose not given beside the values
Nucleic Acid [3] = assay: Induction of DNA cleavage activity in Escherichia coli pBR322 assessed as supercoiled circular form after 10 mins by gel electrophoresis in absence of UV light
Nucleic Acid [4] = assay: Ratio of relaxed circular form of Escherichia coli pBR322 to supercoiled circular form of Escherichia coli pBR322 in presence of 0.1 M NaN3 solution
Nucleic Acid [5] = assay: Ratio of relaxed circular form of Escherichia coli pBR322 to supercoiled circular form of Escherichia coli pBR322 in absence of UV light
Nucleic Acid [6] = assay: Induction of DNA cleavage activity in Escherichia coli pBR322 assessed as supercoiled circular form after 10 mins by gel electrophoresis in presence of 0.1 M NaN3 solution
Nucleic Acid [7] = assay: Ratio of relaxed circular form of Escherichia coli pBR322 to supercoiled circular form of Escherichia coli pBR322 in presence of ascorbic acid
Nucleic Acid [8] = assay: Induction of DNA cleavage activity in Escherichia coli pBR322 assessed as relaxed circular form after 10 mins by gel electrophoresis in presence of bubbling with argon gas; set-up: scale not given: the % may be the effect or the level left
Nucleic Acid [9] = assay: Induction of DNA cleavage activity in Escherichia coli pBR322 assessed as relaxed circular form after 10 mins by gel electrophoresis in presence of ascorbic acid; set-up: scale not given: the % may be the effect or the level left
Nucleic Acid [10] = assay: Induction of DNA cleavage activity in Escherichia coli pBR322 assessed as supercoiled circular form after 10 mins by gel electrophoresis in presence of bubbling with argon gas
Nucleic Acid [11] = assay: Induction of DNA cleavage activity in Escherichia coli pBR322 assessed as relaxed circular form after 10 mins by gel electrophoresis in absence of UV light; set-up: scale not given: the % may be the effect or the level left
Nucleic Acid [12] = assay: Ratio of relaxed circular form of Escherichia coli pBR322 to supercoiled circular form of Escherichia coli pBR322 in presence of bubbling with argon gas
Nucleic Acid [13] = assay: Induction of DNA cleavage activity in Escherichia coli pBR322 assessed as relaxed circular form after 10 mins by gel electrophoresis in presence of 0.1 M NaN3 solution; set-up: scale not given: the % may be the effect or the level left
Nucleic Acid [14] = assay: Induction of DNA cleavage activity in Escherichia coli pBR322 assessed as supercoiled circular form after 10 mins by gel electrophoresis in presence of ascorbic acid

| Activity (Nucleic Acid [1]) [%] | Activity (Nucleic Acid [2]) [%] | SMILES | other results |
| --- | --- | --- | --- |
| 92.2 | 7.83 | CC(=O)N(OC(=O)c1ccccc1)c1ccc(C(=O)c2ccccc2)cc1 | – |
| 88.8 | 11.2 | COc1ccc(C(=O)ON(C(=O)c2ccccc2)c2ccc(C(=O)c3ccccc3)cc2)cc1OC | – |
| 43.4 | 56.6 | O=C(ON(C(=O)c1ccccc1)c1ccc(C(=O)c2ccccc2)cc1)c1ccc([N+](=O)[O-])cc1 | – |
| 77.1 | 22.9 | COc1ccc(C(=O)N(OC(=O)c2ccccc2)c2ccc(C(=O)c3ccccc3)cc2)cc1OC | – |
| 86.8 | 13.2 | O=C(ON(C(=O)c1ccccc1)c1ccc(C(=O)c2ccccc2)cc1)c1ccccc1 | – |
| 40.8 | 59.2 | O=C(ON(C(=O)c1ccc(F)cc1)c1ccc(C(=O)c2ccccc2)cc1)c1ccccc1 | – |
| 73.9 | 25.6 | CC(=O)ON(C(=O)c1ccccc1)c1ccc(C(=O)c2ccccc2)cc1 | Activity (Nucleic Acid [3]): 83.7%; Ratio (Nucleic Acid [4]): 3.18; Ratio (Nucleic Acid [5]): 0.19; Activity (Nucleic Acid [6]): 24.1%; Ratio (Nucleic Acid [7]): 0.31; Activity (Nucleic Acid [8]): 73%; Activity (Nucleic Acid [9]): 23.4%; Activity (Nucleic Acid [10]): 26.1%; Activity (Nucleic Acid [11]): 16.3%; Ratio (Nucleic Acid [12]): 2.79; Activity (Nucleic Acid [13]): 76%; Activity (Nucleic Acid [14]): 76.6% |
| 36.3 | 63.7 | O=C(ON(C(=O)c1ccc([N+](=O)[O-])cc1)c1ccc(C(=O)c2ccccc2)cc1)c1ccccc1 | – |
| 62.9 | 37.1 | O=C(ON(C(=O)c1ccccc1)c1ccc(C(=O)c2ccccc2)cc1)c1ccc(F)cc1 | – |
| 35 | 65 | O=C(ON(C(=O)c1ccccc1)c1ccc(C(=O)c2ccccc2)cc1)c1ccc(Cl)cc1 | – |
